Data reported in patent US20170095502A1, “Antimicrobial Metal-Binding Polymers” (priority 2015, published 2017).

Legend:
[1] = test system: vancomycin-resistant Enterococcus faecalis; test: checkerboard assay, MIC; conditions: VRE
[2] = test system: methicillin-resistant Staphylococcus aureus; test: checkerboard assay, MIC; conditions: MRSA
[3] = test system: Burkholderia pseudomallei (melioidosis); assay type: cell-based
Enterococcus faecium = test: inhibitory concentrations in hospital-acquired clinical wound isolates
[4] = test system: Vancomycin-resistant Staphylococcus aureus (VRSA); test: inhibitory concentrations against drug-resistant bacteria (potentiation of vancomycin); conditions: at 16 ug/ml vancomycin
S. aureus BAA-44 = test: MIC alone or in combination with tetracycline; conditions: for MIC: Staphylococcus aureus, BAA44
[5] = test system: Vancomycin-resistant Enterococcus faecium (VRE); test: inhibitory concentrations against drug-resistant bacteria (potentiation of vancomycin); conditions: at 16 μg/ml vancomycin
Candida albicans = test: inhibitory concentrations in hospital-acquired clinical wound isolates
Yersinia pestis (plague) = assay type: cell-based
Pseudomonas aeruginosa = test: inhibitory concentrations in hospital-acquired clinical wound isolates
Staphylococcus aureus = test: as above
[6] = test system: Bacillus anthracis (anthrax); assay type: cell-based
[7] = test system: Methicillin-resistant Staphylococcus aureus (MRSA); test: inhibitory concentrations against drug-resistant bacteria (potentiation of methicillin); conditions: at 4 ug/ml methicillin
[8] = test system: Francisella tularensis (rabbit fever); assay type: cell-based
Acinetobacter baumannii = test: inhibitory concentrations in hospital-acquired clinical wound isolates

COc1ccc2cc3[n+](cc2c1OC)CCc1cc2c(cc1-3)OCO2 [Berberine, berberine, reference compound]
MIC [1]: 500 µg/mL | MIC [2]: 500 µg/mL

S=C(S)N1CCCC1 [PDTC, pyrrolidine dithiocarbamate]
MIC [1]: 62.5 µg/mL | activity against biothreats [3]: active | Inhibitory concentration (Enterococcus faecium; clinical isolate 6080): 50 µg/mL | Inhibitory concentration (Enterococcus faecium; clinical isolate 6246): 50 µg/mL | Inhibitory concentration (Enterococcus faecium; clinical isolate 6831): 50 µg/mL | Inhibitory concentration ([4]; clinical isolate VRS 1): 13 µg/mL | Inhibitory concentration ([4]; clinical isolate VRS 9): 13 µg/mL | Inhibitory concentration ([4]; clinical isolate VRS 116): 13 µg/mL | MIC (S. aureus BAA-44): 9 µg/mL | effect of PDTC and tetracycline (FIG. 1) (S. aureus BAA-44; combination with tetracycline): synergistic effect | Inhibitory concentration ([5]; clinical isolate 6098): 50 µg/mL | Inhibitory concentration ([5]; clinical isolate 6185): 50 µg/mL | Inhibitory concentration ([5]; clinical isolate 6591): 50 µg/mL | Inhibitory concentration (Candida albicans; clinical isolate Y-236): 12.5 µg/mL | Inhibitory concentration (Candida albicans; clinical isolate Y-477): 12.5 µg/mL | Inhibitory concentration (Candida albicans; clinical isolate Y-6359): 12.5 µg/mL | Inhibitory concentration (Candida albicans; clinical isolate Y-12983): 12.5 µg/mL | Inhibitory concentration (Candida albicans; clinical isolate Y-27022): 6.25 µg/mL | activity against biothreats (Yersinia pestis (plague)): active | Inhibitory concentration (Pseudomonas aeruginosa; clinical isolate 5983): 100 µg/mL | Inhibitory concentration (Pseudomonas aeruginosa; clinical isolate 6162): 100 µg/mL | Inhibitory concentration (Pseudomonas aeruginosa; clinical isolate 6186): 100 µg/mL | Inhibitory concentration (Pseudomonas aeruginosa; clinical isolate 6295): 100 µg/mL | Inhibitory concentration (Pseudomonas aeruginosa; clinical isolate 6311): 100 µg/mL | Inhibitory concentration (Staphylococcus aureus; clinical isolate 6061): 25 µg/mL | Inhibitory concentration (Staphylococcus aureus; clinical isolate 6108): 12.5 µg/mL | Inhibitory concentration (Staphylococcus aureus; clinical isolate B-313): 25 µg/mL | Inhibitory concentration (Staphylococcus aureus; clinical isolate B-767): 50 µg/mL | Inhibitory concentration (Staphylococcus aureus; clinical isolate B-14358): 50 µg/mL | activity against biothreats [6]: active | Inhibitory concentration ([7]; clinical isolate 6006): 25 µg/mL | Inhibitory concentration ([7]; clinical isolate 6051): 13 µg/mL | Inhibitory concentration ([7]; clinical isolate 6544): 13 µg/mL | Inhibitory concentration ([7]; clinical isolate 6605): 13 µg/mL | Inhibitory concentration ([7]; clinical isolate 6607): 13 µg/mL | MIC [2]: 62.5 µg/mL | activity against biothreats [8]: active | Inhibitory concentration (Acinetobacter baumannii; clinical isolate 6043): 100 µg/mL | Inhibitory concentration (Acinetobacter baumannii; clinical isolate 6063): 100 µg/mL | Inhibitory concentration (Acinetobacter baumannii; clinical isolate 6175): 100 µg/mL | Inhibitory concentration (Acinetobacter baumannii; clinical isolate 6272): 100 µg/mL | Inhibitory concentration (Acinetobacter baumannii; clinical isolate 6838): 100 µg/mL

CN(C)[C@@H]1C(O)=C(C(N)=O)C(=O)[C@@]2(O)C(O)=C3C(=O)c4c(O)cccc4[C@@](C)(O)[C@H]3C[C@@H]12 [TET, tetracycline, reference compound]
MIC (S. aureus BAA-44): 32 µg/mL
